Experimental data as given in ChEMBL document CHEMBL1146197, “Evolution of TEM-type enzymes: biochemical and genetic characterization of two new complex mutant TEM enzymes, TEM-151 and TEM-152, from a single patient” (Antimicrob Agents Chemother, 2007).
Converted amounts (≈) assume the structure as drawn.

Assays:
[1] = system: Escherichia coli; assay: Activity of Escherichia coli BL21(DE3) beta-lactamase TEM1
[2] = system: Escherichia coli; assay: Activity of Escherichia coli BL21(DE3) beta-lactamase TEM152
[3] = system: Escherichia coli; assay: microbe, parasite or virus in culture; format: functional; details: DH5alpha
[4] = system: Escherichia coli; assay: Activity of Escherichia coli BL21(DE3) beta-lactamase TEM29
[5] = system: Escherichia coli; assay: Activity of Escherichia coli BL21(DE3) beta-lactamase TEM28
[6] = system: Escherichia coli; assay: Antimicrobial activity against Escherichia coli DH5-alpha isolate expressing pBK-CMV by […]; format: functional; details: DH5alpha
[7] = system: Escherichia coli; assay: Antimicrobial activity against Escherichia coli DH5-alpha TC1295 isolate expressing TEM-1 by […]; format: functional; details: DH5alpha
[8] = system: Escherichia coli; assay: Antimicrobial activity against recombinant Escherichia coli DH5-alpha isolate expressing pBK-TEM-1 and TEM1 by disk diffusion assay; format: functional; details: DH5alpha
[9] = system: Escherichia coli; assay: Antimicrobial activity against recombinant Escherichia coli DH5-alpha isolate expressing pBK-TEM-36 and IRT by disk diffusion assay; format: functional; details: DH5alpha
[10] = system: Escherichia coli; assay: Activity of Escherichia coli BL21(DE3) beta-lactamase TEM151
[11] = system: Escherichia coli; assay: Antimicrobial activity against recombinant Escherichia coli DH5-alpha isolate expressing pBK-TEM-28 and ESBL by disk diffusion assay; format: functional; details: DH5alpha
[12] = system: Escherichia coli; assay: Antimicrobial activity against recombinant Escherichia coli DH5-alpha isolate expressing pBK-TEM-29 and ESBL by disk diffusion assay; format: functional; details: DH5alpha
[13] = system: Escherichia coli; assay: Antimicrobial activity against Escherichia coli DH5-alpha TC1179 isolate expressing TEM-1 by […]; format: functional; details: DH5alpha
[14] = system: Escherichia coli; assay: Activity of Escherichia coli BL21(DE3) beta-lactamase TEM36
[15] = system: Escherichia coli; assay: Antimicrobial activity against Escherichia coli DH5-alpha CF1179 isolate expressing CMT and TEM1 by […]; format: functional; details: DH5alpha
[16] = system: Escherichia coli; assay: microbe, parasite or virus in culture; format: functional; details: DH5alpha; remark: listed apart in the source
[17] = system: Escherichia coli; assay: Antimicrobial activity against Escherichia coli DH5-alpha CF1295 isolate expressing CMT and TEM1 by […]; format: functional; details: DH5alpha

Row | Structure (SMILES) | kcat [1] [s⁻¹] | Km [2] [µM] | kcat [2] [s⁻¹] | kcat/Km [2] [M⁻¹ s⁻¹] | MIC [3] [µg/mL] | Km [4] [µM] | kcat [4] [s⁻¹] | kcat/Km [4] [M⁻¹ s⁻¹] | Km [5] [µM] | kcat [5] [s⁻¹] | kcat/Km [5] [M⁻¹ s⁻¹] | MIC [6] [µg/mL] | MIC [7] [µg/mL] | MIC [8] [µg/mL] | MIC [9] [µg/mL] | Km [10] [µM] | kcat [10] [s⁻¹] | kcat/Km [10] [M⁻¹ s⁻¹] | MIC [12] [µg/mL] | MIC [15] [µg/mL] | further results
1 | CO/N=C(\C(=O)N[C@@H]1C(=O)N2C(C(=O)[O-])=C(C[N+]3(C)CCCC3)CS[C@H]12)c1csc(N)n1 | < 0.1 | 45 | 2.8 | 60000 | 16 (≈ 33.3 µM) | 145 | 17 | 110000 | 72 | 8 | 110000 | < 0.06 | < 0.06 | < 0.06 | 0.12 | 126 | 2.5 | 20000 | 4 | 2 (≈ 4.16 µM) | MIC [11]: 16 µg/mL; MIC [13]: < 0.06 µg/mL; kcat [14]: < 0.1 s⁻¹
2 | C[C@H]1[C@H](NC(=O)/C(=N\OC(C)(C)C(=O)O)c2csc(N)n2)C(=O)N1S(=O)(=O)O (stereo in doubt) [AZTREONAM] | < 0.1 | 22 | 3.5 | 160000 | 64 (≈ 147 µM) | 34 | 2.1 | 60000 | 75 | 43 | 570000 | – | – | – | – | 83 | 8.3 | 100000 | 4 | > 2050 | MIC [16]: 2 µg/mL (≈ 4.59 µM); kcat [14]: < 0.1 s⁻¹; MIC [17]: 8 µg/mL (≈ 18.4 µM)
3 | CC1(C)S[C@@H]2[C@H](NC(=O)[C@H](N)c3ccc(O)cc3)C(=O)N2[C@H]1C(=O)O [AMOXICILLIN] | 1120 | 48 | 258 | 5.4e+06 | > 2050 | 26 | 91 | 3.5e+06 | 12 | 88 | 7.3e+06 | 4 (≈ 10.9 µM) | > 2050 | > 2050 | > 2050 | 40 | 149 | 3.7e+06 | > 2050 | > 2050 | Km [1]: 15 µM; kcat/Km [1]: 7.5e+07 M⁻¹ s⁻¹; MIC [16]: > 2050 µg/mL; MIC [11]: > 2050 µg/mL; MIC [13]: > 2050 µg/mL; Km [14]: 114 µM; kcat [14]: 624 s⁻¹; kcat/Km [14]: 5.5e+06 M⁻¹ s⁻¹; MIC [17]: > 2050 µg/mL
4 | CO/N=C(\C(=O)N[C@@H]1C(=O)N2C(C(=O)O)=C(COC(C)=O)CS[C@H]12)c1csc(N)n1 [CEFOTAXIME] | < 0.1 | 34 | 1 | 30000 | 0.25 (≈ 0.549 µM) | 345 | 14 | 40000 | 50 | 9 | 180000 | 0.02 (≈ 0.0439 µM) | 0.02 (≈ 0.0439 µM) | 0.06 | 0.06 | 304 | 5 | 20000 | 0.5 | 0.12 (≈ 0.263 µM) | MIC [16]: 0.06 µg/mL (≈ 0.132 µM); MIC [11]: 4 µg/mL; MIC [13]: 0.02 µg/mL (≈ 0.0439 µM); kcat [14]: < 0.1 s⁻¹; MIC [17]: 0.12 µg/mL (≈ 0.263 µM)
5 | CO[C@@]1(NC(=O)Cc2cccs2)C(=O)N2C(C(=O)O)=C(COC(N)=O)CS[C@@H]21 [CEFOXITIN] | – | – | – | – | 8 (≈ 18.7 µM) | – | – | – | – | – | – | 4 (≈ 9.36 µM) | 4 (≈ 9.36 µM) | 4 | 8 | – | – | – | 16 | 8 (≈ 18.7 µM) | MIC [16]: 8 µg/mL (≈ 18.7 µM); MIC [11]: 8 µg/mL; MIC [13]: 4 µg/mL (≈ 9.36 µM); MIC [17]: 8 µg/mL (≈ 18.7 µM)
6 | CC(C)(O/N=C(\C(=O)N[C@@H]1C(=O)N2C(C(=O)[O-])=C(C[n+]3ccccc3)CS[C@H]12)c1csc(N)n1)C(=O)O [CEFTAZIDIME] | < 0.1 | 230 | 16 | 70000 | 512 (≈ 937 µM) | 215 | 10 | 50000 | 240 | 64 | 270000 | 0.12 (≈ 0.22 µM) | 0.12 (≈ 0.22 µM) | 0.12 | 0.25 | 250 | 5 | 20000 | 32 | 64 (≈ 117 µM) | MIC [16]: 8 µg/mL (≈ 14.6 µM); MIC [11]: 512 µg/mL; MIC [13]: 0.12 µg/mL (≈ 0.22 µM); kcat [14]: < 0.1 s⁻¹; MIC [17]: 4 µg/mL (≈ 7.32 µM)
